Results taken from article PMC8047011, “Enantiomers of 2-methylglutamate and 2-methylglutamine selectively impact mouse brain metabolism and behavior” (Scientific Reports, 2021).

Experiments:
[1] = biological target: human glutamine synthetase (Homo sapiens, UniProt P15104); design: method as in PMID 5320388; details: identical conditions with L-Glu; cited from earlier work
[2] = tested on: mouse cerebral synaptosomes; test: Metabolism in synaptosomes (GABA shunt, glutamate-glutamine cycle); assay type: in vitro ADME; details: synaptosomes preloaded with 100 μM substrate
Description: (§1) To each tube, a 5 μL aliquot of a test compound solution (final concentration 100 μM) in Buffer KRP or Buffer KRP alone were added. The samples were incubated for 15 min at 37 °C, briefly chilled on ice, and then immediately centrifuged and washed twice by resuspension-centrifugation with Buffer S (0.5 mL). The pellets were then resuspended in Buffer KRP (500 μL). Samples were then immediately centrifuged or incubated for 5, 10, 15, 20, 25 or 30 min at 37 °C and then centrifuged and washed by resuspension-centrifugation with Buffer S (0.5 mL). Resulting pellets were resuspended in 170 μL of 0.1% aqueous formic acid, mixed with 330 μL of ACN. To each tube, 5 μL of 2MeGlu solution (final concentration 100 μM) in Buffer KRP or Buffer KRP alone were added. The samples were incubated for 15 min at 37 °C, briefly chilled on ice, and then immediately centrifuged and washed twice by resuspension-centrifugation with Buffer S (0.5 mL). The pellets were then resuspended in Buffer KRP (200 μL). Samples were then kept on ice or incubated for 10, 20, 30, 40 or 50 min at 37 °C and then chilled on ice. Then all samples were centrifuged, 200 μL of supernatants were collected, and the pellets were suspended in 200 μL of 80% ACN. Supernatants and pellet suspensions were diluted with 250 μL of ACN and 50 μL of 10 μM d[…] in water as internal standard.

[3] = as above; assay type: in vitro ADME, mouse; details: mouse, mouse cerebral synaptosomes; synaptosomes preloaded with 100 μM substrate, 37 °C; estimated; read-out: Synaptosomal concentration half life
Description: as §1

[4] = tested on: primary murine cerebral astrocytes; test: Astrocyte transport and metabolism of 2MeGlu; assay type: cell-based, mouse; details: 1 mM substrate, 2 h, 37 °C
Description: Primary astrocytes from C57Bl/6 mouse brain were cultured in complete astrocyte growth medium at 37 °C at 5% CO2 on 96 well plates. Cells were exposed to 1 mM compound in 100 μL medium for 2 h at 37 °C. Supernatants were collected, centrifuged at 2500g for 10 min at 4 °C. 10 μL aliquots were diluted with 190 μL 60% ACN containing 10 μM Glu-d5 and Gln-d5. Cells were quickly washed with 250 μL cold PBS twice and suspended in 200 μL of 60% ACN containing 10 μM Glu-d5 and Gln-d5. All samples were shaken at 1000 rpm for 5 min and then stored at – 80 °C.

human glutaminase GLS1 = biological target: T1, human glutaminase GLS1 (Homo sapiens, UniProt O94925); test: Catalysis of 2MeGln hydrolysis by GLS1 glutaminase; assay type: biochemical
T1 sequence (O94925 55-669): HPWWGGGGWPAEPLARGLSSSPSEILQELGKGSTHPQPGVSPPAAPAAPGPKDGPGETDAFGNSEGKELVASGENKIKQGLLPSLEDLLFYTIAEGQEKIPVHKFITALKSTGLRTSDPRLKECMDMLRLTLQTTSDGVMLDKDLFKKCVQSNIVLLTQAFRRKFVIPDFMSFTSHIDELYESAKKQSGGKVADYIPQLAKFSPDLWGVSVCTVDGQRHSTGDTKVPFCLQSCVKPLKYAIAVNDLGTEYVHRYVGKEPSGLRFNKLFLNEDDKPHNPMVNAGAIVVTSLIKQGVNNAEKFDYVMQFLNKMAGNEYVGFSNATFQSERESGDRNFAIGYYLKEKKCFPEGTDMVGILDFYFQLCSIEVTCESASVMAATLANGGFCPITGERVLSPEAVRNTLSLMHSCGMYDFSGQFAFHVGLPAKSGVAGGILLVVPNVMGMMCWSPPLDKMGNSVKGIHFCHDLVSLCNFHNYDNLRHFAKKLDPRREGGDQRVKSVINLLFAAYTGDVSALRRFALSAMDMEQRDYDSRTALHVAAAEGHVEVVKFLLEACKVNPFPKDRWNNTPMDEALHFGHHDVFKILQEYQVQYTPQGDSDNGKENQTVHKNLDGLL
Description: The procedure was adapted from an existing protocol. To a reaction mixture in a 1.5 mL microcentrifuge tube containing 10 mM rac-2MeGln or L-Gln-^13C2 in 100 mM phosphate pH 7.4 buffer made in 20% atom ^18O water, recombinant GLS1 (final concentration: 5 ng/mL) was added. The tubes were incubated in a preheated thermomixer at 37 °C and periodically shaken at 600 rpm (30 s on, 30 s off). 5 μL aliquots were collected in triplicate every 5 min and immediately diluted with 195 μL of cold 60% ACN containing 10 μM Glu-d5 and Gln-d5 as internal standards in a 96 well plate. After collecting all samples, the plate was shaken at 1000 rpm for 5 min at room temperature, and then stored at − 80 °C. Before analysis the plate was thawed and 10 μL aliquots of the extracted reaction mixtures were diluted with 190 μL of 90% acetonitrile.
The quantification of the newly formed 2MeGlu in the presence of the preexisting trace amounts was performed in the following way. Peak area ratio of Glu-^13C2 to Glu-^13C2^18O was calculated in all samples containing Glu-^13C2. The mean ratio value was then applied to calculate the hypothetical peak area of the newly formed 2MeGlu based on the directly measured 2MeGlu-^18O peak area. The ratio of the newly formed 2MeGlu peak area and the total 2MeGlu peak area was applied to calculate the concentration of the newly formed 2MeGlu from the total 2MeGlu concentration determined directly using the calibration curve.

[5] = tested on: mouse cerebral synaptosomes; test: Synaptosomal neurotransmitter uptake assay; assay type: cell-based; details: 10 μM substrate, 37 °C
Description: Mouse cerebral synaptosomes were prepared according to published methods. See Supplementary Methods for details. 500 μL aliquots of the synaptosome suspension were transferred to pre-chilled microcentrifuge tubes for experiments. Centrifugations were at 8000g for 4 min at 4 °C, unless stated otherwise, and all samples were stored at − 80 °C.
To each tube, 5 μL of a test compound solution (final concentration 10 μM) in Buffer KRP or Buffer KRP alone were added. Samples were incubated at 4 °C or 37 °C for 1, 10, or 30 min and then immediately centrifuged and washed twice by resuspension–centrifugation with Buffer S (0.5 mL). Resulting pellets were resuspended in 170 μL of 0.1% aqueous formic acid and mixed with 330 μL of ACN.
Buffer S (4 mL, × 1) and Buffer KRP (2 mL, × 3). The resulting pellet was resuspended in 3 mL of Buffer KRP and filtered on Ultrafree-CL 5 μm PVDF centrifugal device (1,000g for 4 min at 4 °C). The filtrate was diluted to 15 mL with ice cold Buffer KRP and kept on ice. The synaptosome preparation was used immediately in the following experiments.
Synaptosomal neurotransmitter uptake assay
96-well plate experiments: 250 μL aliquots of the synaptosome suspension were transferred to two 0.8-mL 96 well plates, one on ice (0 °C samples only) and one in a thermoblock (37 °C samples only), and equilibrated for 10 min. 5 μL of a test compound (0.5 mM; final concentration: 10 μM) in Buffer KRP or Buffer KRP blank were added 10, 20 or 30 min before the incubation termination. “0 min” samples were prepared by placing the test compound solution in a separate pre-chilled V-shape bottom 2-mL 96 well plate; at the end of incubation 200 μL aliquots of all samples were transferred to the 2-mL 96 well plate and centrifuged (2,500g for 15 min at 4 °C) immediately. The resulting pellets were rinsed with Buffer KRP, followed by centrifugation, twice, then resuspended in 200 μL of 60% ACN containing 2.5 μM Glu-d5 as internal standard and stored at –80 °C until analysis. […]

[6] = tested on: mouse cerebral synaptosomes; test: Potassium-induced neurotransmitter release assay; assay type: cell-based; details: preincubated with 100 μM substrate 15 min 37 °C; high-potassium KRP buffer
Description: To each tube, 2.5 μL of a test compound solution (final concentration 100 μM) in Buffer KRP or Buffer KRP alone were added. Samples were incubated for 15 min at 37 °C, briefly chilled on ice, and then immediately centrifuged and washed twice with Buffer KRP. The resulting pellets were then resuspended in either Buffer KRP (500 μL) or Buffer K-KRP (500 μL). Samples were immediately centrifuged or incubated for 5, 10 or 15 min at 37 °C, then centrifuged and washed with Buffer KRP. Resulting pellets were resuspended in 400 μL of 60% ACN containing 2.5 μM Glu-d5 and 2.5 μM Gln-d5 as internal standards.

[7] = tested on: murine primary cerebral cortical neuron cultures; test: Neuronal transport and metabolism of 2MeGln; assay type: cell-based, mouse; details: 1 mM substrate, 2 h, 37 °C; data not shown
Description: The procedure was adapted from an existing protocol. Wild-type (WT) C57BL/6J mating pairs were housed according to Stanford IACUC protocol. On day P0, pups were euthanized and brains dissected in cold HBSS (without Ca^2+ or Mg^2+). The forebrain was microdissected to isolate the cortex and hippocampus. These brain regions were minced in cold HBSS before trypsinization at 37 °C for 9 min, followed by trituration, through 2 glass polished Pasteur pipettes. The resulting cell suspension was passed through a 100 μm filter to isolate single cells which were sedimented at 250g for 5 min. The cell pellet was then resuspended in complete Neural Basal Media (Neural Basal Media + Glutamax + B-27 Plus Supplement + Pen/Strep) + 10%FBS, counted using a hemocytometer and plated at 1 × 10^6 cells per mL into a 24 well plate (1 mL per well) coated with poly-D-lysine and laminin. Cultures were grown at 37 °C/5% CO2 in a tissue culture incubator. Media was exchanged 50% on day 1 in vitro (1DIV) with fresh complete Neural Basal Media without FBS and thereafter every other day with the same media. On 3DIV the media was spiked with 2 μM AraC to limit glial growth. On 10DIV the media was completely replaced with 500 μL Neural Basal Media containing B-27 Plus Supplement + Pen/Strep without added Glutamax but instead containing 1 mM substrate at 37 °C for 2 h. […]

Chain of human glutamine synthetase (P15104 whole entry): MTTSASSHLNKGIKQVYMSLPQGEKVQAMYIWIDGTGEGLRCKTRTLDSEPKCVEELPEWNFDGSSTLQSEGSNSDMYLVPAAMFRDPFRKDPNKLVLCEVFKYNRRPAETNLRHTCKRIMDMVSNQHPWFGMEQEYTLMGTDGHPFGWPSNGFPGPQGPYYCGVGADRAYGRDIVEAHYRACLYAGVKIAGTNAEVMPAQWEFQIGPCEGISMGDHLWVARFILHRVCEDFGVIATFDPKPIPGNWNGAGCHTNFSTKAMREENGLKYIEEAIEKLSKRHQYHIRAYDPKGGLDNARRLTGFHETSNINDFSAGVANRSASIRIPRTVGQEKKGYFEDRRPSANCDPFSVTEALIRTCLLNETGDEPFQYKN

In the case of CC(N)(CCC(=O)O)C(=O)O (racemic) [rac-2MeGlu, 2-methylglutamate], the “Inorganic phosphate released with GS and ATP relative to L-Glu” value [1] is listed as 50%, the “Metabolism along the GABA shunt in synaptosomes” value [2] is listed as “not associated with the concurrent appearance of 4APA or any other 2Me analogue within the GABA shunt” and the half-life at 100 μM [3] is listed as 21 min.

With N[C@@H](CCC(=O)O)C(=O)O [L-[1,2-^13C]Glu, reference compound] the “Extracellular concentration of amide product (2MeGln or [1,2-13C]Gln), astrocyte cultures” value [4] was 5.0 nmol/well and the “Intracellular concentration of amide product (2MeGln or [1,2-13C]Gln) in astrocytes” value [4] was 0.26 nmol/well.

For C[C@](N)(CCC(N)=O)C(=O)O [(S)-2MeGln, (S)-2-methylglutamine], the “Substrate for GLS1” value (human glutaminase GLS1) was “substrates of GS and GLS1, respectively”.

In the case of CC(N)CCC(=O)O (racemic) [rac-4APA, 4-aminopentanoic acid], the Transport into synaptosomes [5] is reported as “transported into synaptosomes” and the “Potassium-induced release from preloaded synaptosomes” value [6] is reported as “exhibited high potassium concentration-dependent release”.

With NC(=O)CC[C@H](N)C(=O)O [Gln, L-glutamine, reference compound] the “Apparent reaction rate of GLS1 hydrolysis” value (human glutaminase GLS1; 10 mM substrate, 5 ng/mL enzyme, phosphate pH 7.4) was 65 µM/min.

With NC(=O)CC[13C@H](N)[13C](=O)O [L-[1,2-^13C]Gln] the “Intracellular [1,2-13C]Gln relative to 2MeGln in neurons” value [7] was “twofold lower” and the “Intracellular [1,2-13C]Glu relative to 2MeGlu in neurons” value [7] was “over fivefold lower”.
